Test results as given in publication PMC9927457 (Microbiology Spectrum, 2023).
Converted amounts (≈) assume the structure as drawn. Like-named read-outs stand apart in the source and are kept apart here.

Legend:
[1] = tested on: M. tuberculosis wild-type strain; test: MIC against wild-type M. tuberculosis; type: cell-based, Mycobacterium tuberculosis; details: for MIC: read-out: MIC Wild type
HepG2 cells = test: HepG2 cytotoxicity; type: cell-based, human; details: 3 days exposure, CellTiter-Glo
Experimental: HepG2 cells were used to measure eukaryotic cytotoxicity. Viability of HepG2 was measured using CellTiter-Glo reagent (Promega) after 3 days of exposure to compounds. […] Staurosporine controls (maximum inhibition) and a staurosporine dose response were included on every plate.

[2] = tested on: M. tuberculosis strain under expressing LepB (LepB-UE); test: microbe, parasite or virus in culture; type: cell-based, Mycobacterium tuberculosis
[3] = target: SPase activity in M. tuberculosis H37Rv cell membrane fractions (Mycobacterium tuberculosis, UniProt P9WKA1); test: Inhibition of secretion (SPase activity) in membrane fractions; type: biochemical; details: fluorogenic peptide substrate 2 μM; 4 h, 37 °C
Chain of SPase activity in M. tuberculosis H37Rv cell membrane fractions (P9WKA1 whole entry): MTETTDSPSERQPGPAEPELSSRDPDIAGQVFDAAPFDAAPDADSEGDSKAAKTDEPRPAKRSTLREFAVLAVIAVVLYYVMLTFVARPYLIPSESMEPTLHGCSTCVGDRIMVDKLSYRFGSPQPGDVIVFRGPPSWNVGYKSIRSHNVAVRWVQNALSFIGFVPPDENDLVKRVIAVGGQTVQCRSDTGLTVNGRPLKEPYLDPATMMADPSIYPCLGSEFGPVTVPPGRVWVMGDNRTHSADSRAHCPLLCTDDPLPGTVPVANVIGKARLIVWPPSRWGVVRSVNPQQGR

RAW 264.7 macrophages = test: Cytotoxicity against infected macrophages; type: cell-based, murine; details: Mus musculus; infected RAW264:7 cells, 72 h; read-out: IC50 Macrophage
Experimental: Murine RAW 264.7 macrophages (ATCC TIB-71) were infected with M. tuberculosis DsRed (DREAM8) ([29]) as described at a multiplicity of infection of 1 for 24 h, washed, harvested, and dispensed into 384-well plates ([30]). Infected macrophages were exposed to compounds for 72 h; cell nuclei were stained with SYBR green I. Plates were imaged with an ImageXpress Micro High Content Screening System (Molecular Devices) using a ×4 objective and FITC and Texas Red channels. MetaXpress was used to determine the integrated intensity of bacteria or macrophages. […] Isoniazid and staurosporine controls (maximum inhibition) and dose responses were included on every plate.

[4] = Plasma protein binding (Rapid Equilibrium Dialysis); type: in vitro ADME, human
Experimental: Molecule fraction fraction Post-Assay
Table S5. Plasma protein binding
Protein binding was measured in human plasma using Rapid Equilibrium Dialysis (RED) devices (Pierce) according to the manufacturers’ instructions; 5 µM compounds in plasma were dialysed against PBS for 4 h at 37C. Compounds were detected by LC-MS/MS in plasma and PBS

Caco-2 cells = test: Caco-2 permeability
Experimental: (§1) Permeability was measured across Caco-2 cells cultured in a Millipore 96-well Caco-2 plate. For apical to basolateral (A→B) permeability, 10 μM compound was added to the apical (A) side and amount of permeation was determined on the basolateral (B) side; for basolateral to apical (B→A) permeability, the compound was added to the B side and the amount of permeation was determine on the A side. Time points were taken at 2 h.
Table S2. Permeability. Permeability was measured using Caco-2 cells after 1 and 2 hours incubation with compound. (A→B) is Apical to Basolateral; (B→A) is Basolateral to Apical. Data is expressed as permeability (10-6 cm s-1). dQ/dt is rate of permeation, C0 is initial concentration […]
Article Duration direction value replicate replicate mean recovery

[5] = Microsomal metabolic stability; details: human, microsomes, pH 7.4
Experimental: as §1
Table S3. Metabolic stability. Metabolic stability was measured using human liver microsomes. […]

[6] = Mycobacterium tuberculosis, 120 h, concentration required to inhibit growth by 90%, 5 days culture
[7] = Mycobacterium tuberculosis, 120 h
[8] = concentration required to inhibit growth by 90%, 5 days culture

Molecule	MIC [1, 6] [µM]	IC50 (HepG2 cells; Homo sapiens, HepG2, 72 h) [µM]	MIC [2, 7] [µM]	further results
CCCCNC(=S)Nc1nccc(C)n1 [Molecule 20, 1-butyl-3-(4-methylpyrimidin-2-yl)thiourea]	> 200	> 100	> 200	–
CCCCCC(=O)Nc1nc2ccccc2s1 [Molecule 2]	> 200	74 ± 13	> 200	–
Cc1ccc(C(=O)Nc2nc3ccccc3s2)cc1 [Molecule 3]	> 200	> 100	140 (≈ 37.6 µg/mL)	–
CCCCNC(=S)NC1=NCCS1 [Molecule 15, 1-butyl-3-(4,5-dihydrothiazol-2-yl)thiourea]	170 (≈ 37 µg/mL)	75	160 (≈ 34.8 µg/mL)	MIC Wild type [1, 8]: 170 ± 1.0 µM (≈ 37 µg/mL); IC50 (HepG2 cells): > 100 µM; MIC LepB-UE [2]: 160 ± 1.0 µM (≈ 34.8 µg/mL)
CCCCNC(=S)Nc1nc2cc(Cl)ccc2o1 [Molecule 32, 1-butyl-3-(5-chlorobenzo[d]oxazol-2-yl) thiourea]	84 ± 13 (≈ 23.8 µg/mL)	9 ± 3	68 ± 3 (≈ 19.3 µg/mL)	–
CCCCNC(=S)Nc1nc2c(Cl)cccc2s1 [Molecule 13, 1-butyl-3-(4-chlorobenzo[d]thiazol-2-yl)thiourea]	> 200	> 100	7.9 (≈ 2.37 µg/mL)	IC50 [3]: > 200 µM; IC50 (RAW 264.7 macrophages): 12 ± 2.8 µM; MIC LepB-UE [2]: 7.9 ± 0.6 µM (≈ 2.37 µg/mL)
COc1ccc(NC(=S)Nc2nc3ccccc3s2)cc1 [Molecule 7]	> 200	> 100	> 200	–
c1ccc2scnc2c1 [Molecule 10]	> 200	7.6 ± 6.2	> 100	–
S=C(NCCc1ccccc1)Nc1nc2ccccc2s1 [Molecule 26, 1-(benzo[d]thiazol-2-yl)-3-phenethylthiourea]	> 200	8 ± 6	8 ± 3 (≈ 2.51 µg/mL)	IC50 [3]: > 200 µM; IC50 (RAW 264.7 macrophages): 1.4 ± 0.2 µM; fraction unbound at 4 h, 5 µM ([4]; human, plasma, Mean plasma fraction Bound): 0.055
CC(=O)CC(c1ccccc1)c1c(O)c2ccccc2oc1=O (stereo not drawn) [Warfarin, reference compound]	–	–	–	recovery at 4 h, 5 µM ([4]; human plasma, RED device, read-out: Post-Assay Recovery): 88.6%; fraction unbound ([4]; human, plasma, human plasma, 5 µM, dialysed against PBS 4 h at 37C, read-out: Mean plasma fraction Bound (converted)): 0.007; fraction unbound ([4]; human, plasma, human plasma, 5 µM, dialysed against PBS 4 h at 37C, read-out: Mean plasma fraction Unbound Fuplasma): 0.0067
CCCCSC(=S)Nc1nc2ccccc2s1 [Molecule 25, butyl benzo[d]thiazol-2-ylcarbamodithioate]	90 ± 20 (≈ 25.4 µg/mL)	29 ± 1	101 ± 27 (≈ 28.5 µg/mL)	–
CCCCNC(=O)Nc1nc2ccccc2s1 [Molecule 5]	> 200	39 ± 25	< 100	MIC LepB-UE [2]: 61 ± 9.1 µM (≈ 15.2 µg/mL)
CCCCCCNc1nc2ccccc2s1 [Molecule 4]	125 (≈ 29.3 µg/mL)	55 ± 8.5	< 100	MIC Wild type [1, 8]: 125 ± 13 µM (≈ 29.3 µg/mL); MIC LepB-UE [2]: 82 ± 16 µM (≈ 19.2 µg/mL)
CCCCNC(=S)Nc1nc2ccc(Cl)cc2o1 [Molecule 33, 1-butyl-3-(6-chlorobenzo[d]oxazol-2-yl)thiourea]	> 200	32 ± 3	49 ± 6 (≈ 13.9 µg/mL)	IC50 [3]: > 200 µM
CCCCNC(=S)Nc1ccnn1C [Molecule 19, 1-butyl-3-(1-methyl-1H-pyrazol-5-yl)thiourea]	> 200	> 100	> 200	IC50 [3]: > 200 µM
CCCCN(C)C(=S)Nc1nc2ccccc2s1 [Molecule 27, 3-(benzo[d]thiazol-2-yl)-1-butyl-1-methylthiourea]	195 ± 7 (≈ 54.5 µg/mL)	5.6	155 to 195 (≈ 43.3 to 54.5 µg/mL)	IC50 [3]: > 200 µM; MIC [1, 7]: 155 to 195 µM (≈ 43.3 to 54.5 µg/mL); IC50 (HepG2 cells): 6 ± 5 µM; MIC LepB-UE [2]: 155 ± 36 µM (≈ 43.3 µg/mL)

Molecule	MIC [1, 6] [µM]	IC50 (HepG2 cells; Homo sapiens, HepG2, 72 h) [µM]	MIC [2, 7] [µM]	further results
CCCCNC(=S)Nc1ncc(C)o1 [Molecule 22, 1-butyl-3-(5-methyloxazol-2-yl)thiourea]	10 (≈ 2.13 µg/mL)	32 ± 19	8 to 9 (≈ 1.71 to 1.92 µg/mL)	IC50 (RAW 264.7 macrophages): 7.1 ± 1.5 µM; MIC Wild type [1, 8]: 10 ± 12 µM (≈ 2.13 µg/mL); MIC LepB-UE [2]: 9.1 ± 0.4 µM (≈ 1.94 µg/mL)
CC(C)NC[C@H](O)COc1cccc2ccccc12 (racemic) [Propanolol, propanolol, reference compound]	–	–	–	Efflux ratio (Re) (Caco-2 cells; Papp(B→A)/Papp(A→B)): 1.5; Mean A→B Papp (Caco-2 cells; apical to basolateral, 10 μM compound, 2 h): 20 10^−6 cm/s; Mean B→A Papp (Caco-2 cells; basolateral to apical, 10 μM compound, 2 h): 30 10^−6 cm/s; Mean plasma fraction Unbound Fuplasma ([4]; human plasma, 5 µM, dialysed against PBS 4 h at 37C): 28.00%; Post-Assay Recovery ([4]; human plasma, RED device): 89.4%
CCCCNC(=S)Nc1nc(C)cs1 [Molecule 16, 1-butyl-3-(4-methylthiazol-2-yl)thiourea]	59 ± 1 (≈ 13.5 µg/mL)	> 100	85 ± 17 (≈ 19.5 µg/mL)	IC50 [3]: > 200 µM
S=C(NCc1ccccc1)Nc1nc2ccccc2s1 [Molecule 6]	> 200	6 ± 0.1	–	–
CCCCNC(=S)Nc1ccc2scnc2c1 [Molecule 30, 1-(benzo[d]thiazol-5-yl)-3-butylthiourea]	73 ± 12 (≈ 19.4 µg/mL)	> 100	49 ± 15 (≈ 13 µg/mL)	–
CCCCNC(=S)Nc1nc(-c2ccccc2)co1 [Molecule 23, 1-butyl-3-(4-phenyloxazol-2-yl)thiourea]	10 to 11 (≈ 2.75 to 3.03 µg/mL)	32 ± 4	10 to 11 (≈ 2.75 to 3.03 µg/mL)	IC50 [3]: > 200 µM; IC50 (RAW 264.7 macrophages): 30 ± 6.4 µM; MIC Wild type [1, 8]: 11 ± 4.0 µM (≈ 3.03 µg/mL); MIC LepB-UE [2]: 10 ± 2.0 µM (≈ 2.75 µg/mL)
CCCCNC(=S)Nc1nc(C)c(C)s1 [Molecule 17, 1-butyl-3-(4,5-dimethylthiazol-2-yl)thiourea]	> 200	> 100	112 ± 25 (≈ 27.3 µg/mL)	–
CCCCNC(=S)Nc1nc2ccccc2[nH]1 [Molecule 11, 1-(benzo[d]imidazol-2-yl)-3-butylthiourea]	120 ± 10 (≈ 29.8 µg/mL)	6 ± 0.1	29 ± 2.1 (≈ 7.2 µg/mL)	IC50 [3]: > 200 µM
CCCCNC(=S)Nc1nc(C)c[nH]1 [Molecule 18, 1-butyl-3-(4-methyl-1H-imidazol-2-yl)thiourea]	44 (≈ 9.34 µg/mL)	61 ± 4	51 (≈ 10.8 µg/mL)	MIC Wild type [1, 8]: 44 ± 8.0 µM (≈ 9.34 µg/mL); MIC LepB-UE [2]: 51 ± 1.0 µM (≈ 10.8 µg/mL)
CC(C)CNC(=S)Nc1nc2ccccc2s1 [Molecule 28, 1-(benzo[d]thiazol-2-yl)-3-isobutylthiourea]	–	–	12 to 21 (≈ 3.18 to 5.57 µg/mL)	MIC LepB-UE [2]: 21 ± 11 µM (≈ 5.57 µg/mL)
COc1ccc2c(c1)[C@]13CCCC[C@@H]1[C@H](C2)N(C)CC3 [Dextromethorphan, dextromethorphan, reference compound]	–	–	–	half-life at 1 µM [5]: 1.97 h; microsomal CLint at 1 µM [5]: 19.5 µL/min/mg
1-butyl-3-(5-methoxybenzo[d]oxazol-2-yl)thiourea [Molecule 35]	–	–	–	MIC [1, 8]: >200 µM; IC50 (HepG2 cells): > 100 µM; MIC [2]: >200 µM
CCCCNC(=S)Nc1ccccn1 [Molecule 9]	> 200	65 ± 50	100 (≈ 20.9 µg/mL)	–
CCCCNC(=S)Nc1nc2cccc(Cl)c2o1 [Molecule 34, 1-butyl-3-(7-chlorobenzo[d]oxazol-2-yl)thiourea]	> 200	13 ± 3	53 ± 1 (≈ 15 µg/mL)	IC50 (RAW 264.7 macrophages): 5.8 ± 0.4 µM
COc1ccc(NC(=S)Nc2nccs2)cc1 [Molecule 8]	27 (≈ 7.16 µg/mL)	21 ± 19	–	IC50 [3]: > 200 µM; MIC Wild type [1, 8]: 27 ± 17 µM (≈ 7.16 µg/mL)
